Measured values reported in ChEMBL document CHEMBL3638724, “Selective androgen receptor modulators” (2015).

Biological target: T1, Androgen receptor (Homo sapiens, UniProt P10275)
T1 sequence (P10275 whole entry): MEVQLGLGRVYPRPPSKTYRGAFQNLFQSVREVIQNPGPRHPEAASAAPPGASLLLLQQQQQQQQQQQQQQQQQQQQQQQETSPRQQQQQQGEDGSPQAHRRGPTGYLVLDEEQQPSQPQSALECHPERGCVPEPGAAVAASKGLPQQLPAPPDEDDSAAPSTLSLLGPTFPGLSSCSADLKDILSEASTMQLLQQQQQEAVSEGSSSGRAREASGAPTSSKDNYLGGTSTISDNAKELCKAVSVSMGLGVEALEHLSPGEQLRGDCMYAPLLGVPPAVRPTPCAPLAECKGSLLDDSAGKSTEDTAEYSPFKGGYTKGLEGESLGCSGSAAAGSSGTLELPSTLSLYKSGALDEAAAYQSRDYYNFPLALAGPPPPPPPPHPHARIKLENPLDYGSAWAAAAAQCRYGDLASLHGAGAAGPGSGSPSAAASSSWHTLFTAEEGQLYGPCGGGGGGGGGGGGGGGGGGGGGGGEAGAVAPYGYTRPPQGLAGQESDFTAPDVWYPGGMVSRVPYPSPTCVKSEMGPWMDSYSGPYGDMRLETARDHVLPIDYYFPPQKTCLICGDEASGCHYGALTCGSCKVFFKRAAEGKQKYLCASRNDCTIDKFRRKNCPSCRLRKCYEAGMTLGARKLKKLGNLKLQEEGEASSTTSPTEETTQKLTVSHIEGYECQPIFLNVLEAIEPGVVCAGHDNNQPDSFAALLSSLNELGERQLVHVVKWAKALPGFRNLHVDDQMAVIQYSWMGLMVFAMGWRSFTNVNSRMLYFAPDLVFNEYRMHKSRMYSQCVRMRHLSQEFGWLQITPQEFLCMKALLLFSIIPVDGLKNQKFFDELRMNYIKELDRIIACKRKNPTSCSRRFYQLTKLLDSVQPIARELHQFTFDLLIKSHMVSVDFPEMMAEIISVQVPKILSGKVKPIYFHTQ
Experiment: The assay was performed as specified by the manufacturer (Invitrogen, Madison, Wis.). Briefly, 1 ul of 10 mM compound was added to 500 ul of AR screening buffer in a 1.5 ml eppendorf tube to make a 2x10-5M stock. 10-fold serial dilutions of the test compounds were prepared ranging in concentration from 10^-5M to 10-12M. Each dilution was added in triplicate to a black 384-microtiter plate. The test compounds will be diluted 2-fold in the final reaction. 2xAR-Fluormone complex was prepared with 2 nM Flourmone AL Green and 30 nM AR. 25 ul of 2x complex was aliquoted to each reaction well, such that the final reaction volume was 50 ul per well. The plate was sealed with a foil cover and incubated in the dark at room temperature.

IC50 | SMILES
1560 nM | OC1(C(F)(F)F)CCCc2c1[nH]c1cc(Cl)c(Cl)cc21 (stereo unspecified)
40200 nM | OC1(C(F)(F)F)CCCc2c1[nH]c1ccc(Cl)c(Cl)c21 (stereo unspecified)
1420 nM | Oc1cccc2c1[nH]c1ccc(Br)cc12
> 10000 nM | OC1(C(F)(F)F)c2[nH]c3c(Cl)cc(F)cc3c2CCC1C(F)(F)F (stereo unspecified)

Continued, compound first:

SMILES | IC50
N#Cc1ccc2[nH]c3c(O)cccc3c2c1 | 4600 nM
Oc1c(Br)ccc2c1[nH]c1cc(Cl)c(Cl)cc12 | 34 nM
Oc1cccc2c1[nH]c1ccc(Cl)c(Cl)c12 | 15 nM
O[C@@]1(C(F)(F)F)CCCc2c1[nH]c1cc(Cl)c(Cl)cc21 | > 1000 nM
O[C@]1(C(F)(F)F)CCCc2c1[nH]c1cc(Cl)c(Cl)cc21 | 13 nM
O[C@]1(C(F)(F)F)CCCc2c1[nH]c1c(Cl)cc(Cl)cc21 | 20 nM
OC1(C(F)(F)F)CCCc2c1[nH]c1c(Cl)cc(Cl)c(Cl)c21 (stereo unspecified) | > 10000 nM
